Among the data in ChEMBL document CHEMBL1149836, “Antifungal metabolites from the plant endophytic fungus Pestalotiopsis foedan” (2008) are zone of inhibition values, retold here.

Molecules are shown by their SMILES.

Common to all, as to assay type: functional
One assay has as its system Candida albicans. The assay can be described thus: Antifungal activity against Candida albicans ATCC 10231 at 100 ug/ml after 48 hrs by agar diffusion assay. The settings on record: ATCC 10231, 48 h, read-out: IZ. (In agar diffusion tests the substance spreads into inoculated agar from a disc or well.)
For another assay, the system named is Aspergillus fumigatus. Description: Antifungal activity against Aspergillus fumigatus ATCC 10894 at 100 ug/ml after 48 hrs by agar diffusion assay. Conditions: ATCC 10894, 48 h, read-out: IZ.
Another assay relates to Geotrichum candidum. Description: Antifungal activity against Geotrichum candidum AS2.498 at 100 ug/ml after 48 hrs by agar diffusion assay. Conditions: read-out: IZ.

As for `OC(Cn1cncn1)(Cn1cncn1)c1ccc(F)cc1F` [FLUCONAZOLE], the zone of inhibition at 100 µg/mL in the assay with Candida albicans, with Aspergillus fumigatus and with Geotrichum candidum was 18 mm each time.
As to `C[C@H]1CCC[C@@]2(CC3=C(CO2)C(=O)[C@](C)(O)[C@@H](O)C3)O1` [PESTAFOLIDE A], the zone of inhibition at 100 µg/mL with Aspergillus fumigatus was 10 mm.
As to `Cc1c(O)cc2c(c1O)C(=O)O[C@@H]2[C@H](C)O` [PESTAPHTHALIDE A], the zone of inhibition at 100 µg/mL with Candida albicans was determined as 13 mm.
As to `Cc1c(O)cc2c(c1O)C(=O)O[C@H]2[C@H](C)O` [PESTAPHTHALIDE B], the zone of inhibition at 100 µg/mL in the assay on Geotrichum candidum was found to be 11 mm.
